# The source made the active and inactive calls. The calls are words filed in the database; no cut-off is given here.
# Columns and labels:
# [1] = target: Mitogen-activated protein kinase kinase kinase 14 (Homo sapiens, UniProt Q99558, S549D); experiment: Inhibition of His6-tagged human NIK (330 to 680 residues) S549D mutant expressed in baculovirus-infected Sf9 cells incubated for 30 mins in presence of ATP by ADP-GloTM assay
# [2] = system: Z-138; experiment: Antiproliferative activity against NIK-activated human Z138 cells assessed as inhibition of cell growth incubated for 72 hrs by XTT assay; type: functional
# [3] = system: Maver1; experiment: Antiproliferative activity against NIK-activated human MAVER-1 cells assessed as inhibition of cell growth incubated for 72 hrs by XTT assay; type: functional
# [4] = system: MCF7; experiment: Antiproliferative activity against NIK-independent human MCF7 cells assessed as inhibition of cell growth incubated for 72 hrs by XTT assay; type: functional
# [5] = system: JIM3 (Homo sapiens); experiment: Antiproliferative activity against NIK-independent human JIM3 cells assessed as inhibition of cell growth incubated for 72 hrs by XTT assay; details: JIM3, 72 h
# [6] = target: Mitogen-activated protein kinase kinase kinase 14 (Homo sapiens) (UniProt Q99558); experiment: Covalent binding affinity to NIK (unknown origin) assessed as protein-compound adduct formation by measuring increase in 330Da mass at 100 uM incubated for 6 hrs by mass spectrometry
# Mitogen-activated protein kinase kinase kinase 14 (Homo sapiens), sequence (Q99558 whole entry, looked up, the tested form may be a part): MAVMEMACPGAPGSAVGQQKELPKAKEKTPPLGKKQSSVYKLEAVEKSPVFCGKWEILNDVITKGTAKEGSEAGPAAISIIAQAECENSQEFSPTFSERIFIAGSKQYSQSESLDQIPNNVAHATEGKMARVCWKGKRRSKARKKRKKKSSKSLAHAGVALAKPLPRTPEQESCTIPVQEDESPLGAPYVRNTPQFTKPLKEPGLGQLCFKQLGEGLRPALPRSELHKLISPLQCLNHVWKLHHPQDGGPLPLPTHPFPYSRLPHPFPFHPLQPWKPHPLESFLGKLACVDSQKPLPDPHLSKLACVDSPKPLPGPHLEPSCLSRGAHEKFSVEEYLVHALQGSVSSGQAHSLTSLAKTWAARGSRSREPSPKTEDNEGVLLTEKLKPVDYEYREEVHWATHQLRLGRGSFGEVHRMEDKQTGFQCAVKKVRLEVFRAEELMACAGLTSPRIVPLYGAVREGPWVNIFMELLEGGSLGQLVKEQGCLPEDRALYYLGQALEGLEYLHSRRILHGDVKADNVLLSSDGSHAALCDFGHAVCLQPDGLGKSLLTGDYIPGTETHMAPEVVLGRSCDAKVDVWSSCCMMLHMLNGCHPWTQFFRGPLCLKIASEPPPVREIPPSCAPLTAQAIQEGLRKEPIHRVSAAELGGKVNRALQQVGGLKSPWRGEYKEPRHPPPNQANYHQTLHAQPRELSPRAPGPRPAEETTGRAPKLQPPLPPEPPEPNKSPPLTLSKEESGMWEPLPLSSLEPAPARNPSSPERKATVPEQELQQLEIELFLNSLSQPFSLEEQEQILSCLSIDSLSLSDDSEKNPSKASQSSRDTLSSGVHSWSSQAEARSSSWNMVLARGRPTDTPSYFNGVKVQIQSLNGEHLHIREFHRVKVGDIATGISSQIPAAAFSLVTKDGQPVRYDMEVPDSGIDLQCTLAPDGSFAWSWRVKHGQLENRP
# [7] = target: Mitogen-activated protein kinase kinase kinase 14 (Homo sapiens) (UniProt Q99558); experiment: Covalent binding affinity to NIK (unknown origin) assessed as labeling at Cys444 residue using Ala438-Arg451 peptide incubated for 18 hrs measured after tryptic digestion by MS/MS fragmentation spectral analysis
# [8] = target: Mitogen-activated protein kinase kinase kinase 9 (Homo sapiens) (UniProt P80192); experiment: Inhibition of MLK1 (unknown origin) at 1 uM relative to control
# Mitogen-activated protein kinase kinase kinase 9 (Homo sapiens), sequence (P80192 whole entry, looked up): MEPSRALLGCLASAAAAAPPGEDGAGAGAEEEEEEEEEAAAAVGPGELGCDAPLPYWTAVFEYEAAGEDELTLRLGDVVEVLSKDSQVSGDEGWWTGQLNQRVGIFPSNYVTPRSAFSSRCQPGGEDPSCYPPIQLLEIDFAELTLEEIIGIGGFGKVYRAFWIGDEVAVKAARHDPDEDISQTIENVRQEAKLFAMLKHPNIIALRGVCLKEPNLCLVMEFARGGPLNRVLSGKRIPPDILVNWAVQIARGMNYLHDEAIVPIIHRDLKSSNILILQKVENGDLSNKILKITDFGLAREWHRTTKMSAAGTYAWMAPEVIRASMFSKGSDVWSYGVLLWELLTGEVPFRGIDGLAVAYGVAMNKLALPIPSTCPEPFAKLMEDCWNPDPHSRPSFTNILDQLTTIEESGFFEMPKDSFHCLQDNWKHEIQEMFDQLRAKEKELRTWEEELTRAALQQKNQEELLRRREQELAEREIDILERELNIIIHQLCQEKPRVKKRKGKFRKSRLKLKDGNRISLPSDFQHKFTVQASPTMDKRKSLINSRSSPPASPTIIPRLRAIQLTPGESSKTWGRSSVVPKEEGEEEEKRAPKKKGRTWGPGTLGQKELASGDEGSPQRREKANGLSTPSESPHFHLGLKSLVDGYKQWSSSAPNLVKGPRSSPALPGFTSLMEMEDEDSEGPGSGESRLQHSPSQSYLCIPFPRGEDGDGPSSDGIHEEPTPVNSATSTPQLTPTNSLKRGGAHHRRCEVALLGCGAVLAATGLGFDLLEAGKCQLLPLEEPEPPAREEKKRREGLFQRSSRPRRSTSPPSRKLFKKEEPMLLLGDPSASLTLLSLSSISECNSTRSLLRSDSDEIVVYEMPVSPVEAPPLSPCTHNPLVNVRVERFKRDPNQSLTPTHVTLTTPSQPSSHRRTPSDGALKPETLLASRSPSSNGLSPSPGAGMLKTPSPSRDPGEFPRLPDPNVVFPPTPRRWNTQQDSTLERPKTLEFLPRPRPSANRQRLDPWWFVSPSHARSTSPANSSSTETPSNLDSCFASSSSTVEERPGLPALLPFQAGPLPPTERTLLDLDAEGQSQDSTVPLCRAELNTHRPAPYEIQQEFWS
# [9] = target: Receptor tyrosine-protein kinase erbB-4 (Homo sapiens) (UniProt Q15303); experiment: Inhibition of HER4 (unknown origin) at 1 uM relative to control
# [10] = target: T1, Serine/threonine-protein kinase Sgk1 (Homo sapiens) (UniProt O00141); experiment: Inhibition of SGK1 (unknown origin) at 1 uM relative to control
# T1 sequence (whole entry): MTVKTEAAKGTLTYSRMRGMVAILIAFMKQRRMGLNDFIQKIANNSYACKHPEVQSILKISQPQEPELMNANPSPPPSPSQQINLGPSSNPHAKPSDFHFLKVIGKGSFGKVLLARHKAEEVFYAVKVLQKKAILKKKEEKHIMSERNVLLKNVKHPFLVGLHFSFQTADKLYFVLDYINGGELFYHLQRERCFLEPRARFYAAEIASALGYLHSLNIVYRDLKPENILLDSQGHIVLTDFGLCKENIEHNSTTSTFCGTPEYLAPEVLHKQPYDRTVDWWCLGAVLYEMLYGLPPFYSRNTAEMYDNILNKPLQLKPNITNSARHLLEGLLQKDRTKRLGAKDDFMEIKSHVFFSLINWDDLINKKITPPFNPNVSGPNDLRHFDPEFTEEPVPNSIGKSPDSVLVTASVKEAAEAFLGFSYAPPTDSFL
# [11] = target: T2, Mitogen-activated protein kinase kinase kinase 7 (Homo sapiens) (UniProt O43318); experiment: Inhibition of TAK1 (unknown origin) at 1 uM relative to control
# T2 sequence (whole entry): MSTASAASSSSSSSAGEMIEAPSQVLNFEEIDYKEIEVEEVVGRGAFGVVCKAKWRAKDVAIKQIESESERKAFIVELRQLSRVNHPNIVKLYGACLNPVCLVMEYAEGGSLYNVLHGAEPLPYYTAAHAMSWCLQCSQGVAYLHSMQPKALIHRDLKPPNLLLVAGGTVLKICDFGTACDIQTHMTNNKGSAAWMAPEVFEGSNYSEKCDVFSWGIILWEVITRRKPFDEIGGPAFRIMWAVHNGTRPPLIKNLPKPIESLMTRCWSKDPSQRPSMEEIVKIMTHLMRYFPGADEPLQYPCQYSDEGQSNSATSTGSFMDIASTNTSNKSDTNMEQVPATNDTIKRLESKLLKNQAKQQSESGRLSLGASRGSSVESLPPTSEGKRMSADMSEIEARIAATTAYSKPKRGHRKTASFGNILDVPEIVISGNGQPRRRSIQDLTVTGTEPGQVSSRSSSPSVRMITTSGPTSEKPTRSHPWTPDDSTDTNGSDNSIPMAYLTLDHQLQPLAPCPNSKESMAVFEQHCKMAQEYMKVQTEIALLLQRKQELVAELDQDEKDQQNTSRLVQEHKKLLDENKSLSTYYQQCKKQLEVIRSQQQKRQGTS
# [12] = target: Platelet-derived growth factor receptor alpha (Homo sapiens) (UniProt P16234); experiment: Inhibition of PDGFRA (unknown origin) at 1 uM relative to control
# Platelet-derived growth factor receptor alpha (Homo sapiens), sequence (P16234 whole entry): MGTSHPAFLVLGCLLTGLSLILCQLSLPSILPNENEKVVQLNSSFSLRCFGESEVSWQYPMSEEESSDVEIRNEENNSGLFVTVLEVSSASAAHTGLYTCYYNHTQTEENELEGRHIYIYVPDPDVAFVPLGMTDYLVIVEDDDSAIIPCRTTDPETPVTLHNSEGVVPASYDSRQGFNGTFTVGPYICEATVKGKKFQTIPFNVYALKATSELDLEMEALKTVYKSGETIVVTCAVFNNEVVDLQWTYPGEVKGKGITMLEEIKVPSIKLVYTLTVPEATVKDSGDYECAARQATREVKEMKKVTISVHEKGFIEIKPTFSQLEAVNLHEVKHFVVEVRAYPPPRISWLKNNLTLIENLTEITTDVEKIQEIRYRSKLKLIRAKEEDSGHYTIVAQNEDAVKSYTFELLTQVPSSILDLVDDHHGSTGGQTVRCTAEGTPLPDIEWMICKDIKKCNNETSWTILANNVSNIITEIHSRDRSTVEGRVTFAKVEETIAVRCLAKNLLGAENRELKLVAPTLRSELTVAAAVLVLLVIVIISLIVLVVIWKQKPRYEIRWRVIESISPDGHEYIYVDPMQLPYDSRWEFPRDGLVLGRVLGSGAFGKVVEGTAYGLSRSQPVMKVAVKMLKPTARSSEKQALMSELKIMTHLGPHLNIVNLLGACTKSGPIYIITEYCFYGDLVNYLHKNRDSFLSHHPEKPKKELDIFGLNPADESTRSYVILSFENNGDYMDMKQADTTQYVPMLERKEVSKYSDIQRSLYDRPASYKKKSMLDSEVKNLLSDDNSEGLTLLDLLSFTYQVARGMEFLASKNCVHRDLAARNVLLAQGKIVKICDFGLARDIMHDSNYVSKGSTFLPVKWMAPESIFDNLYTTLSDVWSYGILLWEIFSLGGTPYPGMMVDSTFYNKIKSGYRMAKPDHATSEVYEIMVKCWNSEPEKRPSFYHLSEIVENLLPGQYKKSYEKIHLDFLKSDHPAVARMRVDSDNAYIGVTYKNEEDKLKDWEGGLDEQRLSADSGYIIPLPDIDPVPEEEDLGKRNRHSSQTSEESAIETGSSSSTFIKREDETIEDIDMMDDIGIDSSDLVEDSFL
# [13] = target: Tyrosine-protein kinase BTK (Homo sapiens) (UniProt Q06187); experiment: Inhibition of BTK (unknown origin) at 1 uM relative to control
# Tyrosine-protein kinase BTK (Homo sapiens), sequence (Q06187 whole entry): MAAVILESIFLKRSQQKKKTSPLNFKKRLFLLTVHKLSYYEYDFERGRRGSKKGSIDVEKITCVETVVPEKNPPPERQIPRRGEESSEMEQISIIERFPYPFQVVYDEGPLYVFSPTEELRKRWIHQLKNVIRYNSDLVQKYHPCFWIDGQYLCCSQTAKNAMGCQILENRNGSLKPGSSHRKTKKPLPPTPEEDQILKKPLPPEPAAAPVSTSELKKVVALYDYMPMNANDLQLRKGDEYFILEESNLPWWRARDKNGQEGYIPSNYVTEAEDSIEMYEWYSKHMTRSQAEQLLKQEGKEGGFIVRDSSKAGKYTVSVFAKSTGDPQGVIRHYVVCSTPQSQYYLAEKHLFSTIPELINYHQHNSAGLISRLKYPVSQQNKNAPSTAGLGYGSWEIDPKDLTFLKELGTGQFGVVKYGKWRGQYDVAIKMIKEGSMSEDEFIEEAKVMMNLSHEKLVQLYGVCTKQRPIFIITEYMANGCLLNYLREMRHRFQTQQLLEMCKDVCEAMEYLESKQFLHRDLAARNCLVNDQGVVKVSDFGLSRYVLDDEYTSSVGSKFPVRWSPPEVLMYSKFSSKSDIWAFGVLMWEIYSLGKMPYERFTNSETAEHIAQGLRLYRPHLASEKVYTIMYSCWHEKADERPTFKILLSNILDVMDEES
# [14] = target: Receptor-interacting serine/threonine-protein kinase 2 (Homo sapiens) (UniProt O43353); experiment: Inhibition of RIPK2 (unknown origin) at 1 uM relative to control
# [15] = target: Aurora kinase B (Homo sapiens) (UniProt Q96GD4); experiment: Inhibition of Aurora B (unknown origin) at 1 uM relative to control
# [16] = organism: Homo sapiens; experiment: Inhibition of VEGFR (unknown origin) at 1 uM relative to control
# [17] = target: Serine/threonine-protein kinase SIK2 (Homo sapiens) (UniProt Q9H0K1); experiment: Inhibition of SIK2 (unknown origin) at 1 uM relative to control
# Serine/threonine-protein kinase SIK2 (Homo sapiens), sequence (Q9H0K1 whole entry, looked up): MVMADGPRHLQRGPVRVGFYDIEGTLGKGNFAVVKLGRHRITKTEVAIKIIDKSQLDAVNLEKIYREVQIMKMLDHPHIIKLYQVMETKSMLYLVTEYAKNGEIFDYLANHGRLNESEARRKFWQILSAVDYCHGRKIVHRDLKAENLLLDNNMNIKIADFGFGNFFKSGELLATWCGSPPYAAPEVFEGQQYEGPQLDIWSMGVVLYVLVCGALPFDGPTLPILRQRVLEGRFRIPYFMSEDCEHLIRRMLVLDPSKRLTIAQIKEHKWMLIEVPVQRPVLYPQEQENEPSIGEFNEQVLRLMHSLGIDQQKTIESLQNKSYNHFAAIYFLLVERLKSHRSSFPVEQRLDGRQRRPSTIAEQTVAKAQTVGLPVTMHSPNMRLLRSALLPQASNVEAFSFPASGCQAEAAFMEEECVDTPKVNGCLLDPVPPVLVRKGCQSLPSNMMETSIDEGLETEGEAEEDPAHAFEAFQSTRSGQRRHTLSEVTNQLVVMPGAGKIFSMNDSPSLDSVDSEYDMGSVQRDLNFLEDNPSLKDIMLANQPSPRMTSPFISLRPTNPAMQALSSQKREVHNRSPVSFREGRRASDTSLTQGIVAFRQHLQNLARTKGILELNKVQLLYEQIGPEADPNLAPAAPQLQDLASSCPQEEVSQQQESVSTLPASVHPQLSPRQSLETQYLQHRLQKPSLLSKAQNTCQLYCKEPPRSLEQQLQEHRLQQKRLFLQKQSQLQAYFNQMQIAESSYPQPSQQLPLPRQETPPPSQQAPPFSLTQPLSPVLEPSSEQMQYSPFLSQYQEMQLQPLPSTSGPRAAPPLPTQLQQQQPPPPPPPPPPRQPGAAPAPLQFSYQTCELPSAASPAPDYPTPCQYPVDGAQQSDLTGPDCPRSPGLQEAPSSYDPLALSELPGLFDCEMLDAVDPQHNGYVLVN
# [18] = Lipophilicity, log D of the compound at pH 7.4; type: physicochemical; details: buffer
# [19] = Solubility of the compound; type: physicochemical
# [20] = Apparent permeability across apical to basolateral side in human Caco-2 cells; type: ADME, cell-based
# [21] = Apparent permeability across basolateral to apical side in human Caco-2 cells; type: ADME, cell-based
# [22] = Intrinsic clearance in rat hepatocytes measured per million of cells; type: ADME, cell-based, Hepatocyte; details: read-out: CLH
# [23] = Intrinsic clearance in human hepatocytes measured per million of cells; type: ADME, cell-based, Hepatocyte; details: read-out: CLH
# Mitogen-activated protein kinase kinase kinase 14, sequence (Q99558 whole entry S549D, the tested form may be a part): as the sequence (Q99558 whole entry, looked up, the tested form may be a part) above, with S549D counted along it
smiles,measurement,setting,value
C=CC(=O)NCCCc1ccc2ncn(-c3ccnc(N)n3)c2c1,IC50,[1],501 µM
C=CC(=O)NCC#Cc1ccc2ncn(-c3ccnc(N)n3)c2c1,IC50,[1],6.31 µM
C#Cc1cccc(C#Cc2ccc3ncn(-c4ccnc(N)n4)c3c2)n1,IC50,[1],3.16 µM
C#Cc1cncc(C#Cc2ccc3ncn(-c4ccnc(N)n4)c3c2)n1,IC50,[1],6.31 µM
CC(=O)NCCCc1ccc2ncn(-c3ccnc(N)n3)c2c1,IC50,[1],> 100 µM
C#Cc1cncc(C#Cc2ccc3ncn(-c4ccnc(N)n4)c3c2)c1,IC50,[1],63.1 µM
COCCOc1cnc(N)nc1-c1c[nH]c2ccc(C#CC(C)(C)O)cc12,IC50,[1],0.0398 µM
C#Cc1ncc(C#Cc2ccc3ncn(-c4ccnc(N)n4)c3c2)cn1,IC50,[1],79.4 µM
C=Cc1nccc(C#Cc2ccc3ncn(-c4ccnc(N)n4)c3c2)n1,IC50,[1],39.8 µM
COc1cc(C(N)=O)nc(-c2cccc(C#C[C@]3(O)CCN(C)C3=O)c2)c1,GI50,[2],20000 nM
same,GI50,[3],3980 nM
same,GI50,[4],> 31600 nM
same,GI50,[5],> 31600 nM
CCc1ccc2ncn(-c3ccnc(N)n3)c2c1,IC50,[1],79.4 µM
C#Cc1ccnc(C#Cc2ccc3ncn(-c4ccnc(N)n4)c3c2)n1,IC50,[1],0.2 µM
same,Activity,[6],Active
same,Activity,[7],Active
same,inhibition,[8],> 50%
same,inhibition,[9],> 50%
same,inhibition,[10],> 50%
same,inhibition,[11],> 50%
same,inhibition,[12],> 50%
same,inhibition,[13],> 50%
same,inhibition,[14],> 50%
same,inhibition,[15],> 50%
same,inhibition,[16],> 50%
same,inhibition,[17],> 50%
same,GI50,[2],631 nM
same,GI50,[3],398 nM
same,GI50,[4],501 nM
same,logD,[18],2.8
same,solubility,[19],3.8 µM
same,Papp A→B,[20],0.33 ×10⁻⁶ cm/s
same,Papp B→A,[21],0.22 ×10⁻⁶ cm/s
same,hepatocyte CLint,[22],915 µL/min/1e6 cells
same,hepatocyte CLint,[23],382 µL/min/1e6 cells
same,GI50,[5],501 nM
C#Cc1ccnc(C#Cc2ccc3ncn(-c4ccnc(N)n4)c3c2)c1,IC50,[1],0.316 µM
same,GI50,[2],7940 nM
same,GI50,[3],10000 nM
same,GI50,[4],> 10000 nM
same,GI50,[5],> 7940 nM
C=Cc1ccc(C#Cc2ccc3ncn(-c4ccnc(N)n4)c3c2)cn1,IC50,[1],79.4 µM
C=CC(=O)NCCCCc1ccc2ncn(-c3ccnc(N)n3)c2c1,IC50,[1],501 µM
C#Cc1cnc(C#Cc2ccc3ncn(-c4ccnc(N)n4)c3c2)nc1,IC50,[1],25.1 µM
C=Cc1ccnc(C#Cc2ccc3ncn(-c4ccnc(N)n4)c3c2)c1,IC50,[1],1.58 µM
same,GI50,[2],398 nM
same,GI50,[3],501 nM
same,GI50,[4],1260 nM
same,GI50,[5],1580 nM
C#Cc1nccc(C#Cc2ccc3ncn(-c4ccnc(N)n4)c3c2)n1,IC50,[1],39.8 µM
Cc1ccnc(C#Cc2ccc3ncn(-c4ccnc(N)n4)c3c2)n1,IC50,[1],1.58 µM
C#Cc1cc(C#Cc2ccc3ncn(-c4ccnc(N)n4)c3c2)ccn1,IC50,[1],31.6 µM
CC(O)(C#Cc1ccc2c(c1)N(c1nc(N)ncc1Cl)CC2)c1nccs1 (stereo not drawn),IC50,[1],0.00398 µM
C=Cc1ccnc(C#Cc2ccc3ncn(-c4ccnc(N)n4)c3c2)n1,IC50,[1],1.58 µM
same,GI50,[2],1000 nM
same,GI50,[3],1260 nM
same,GI50,[4],631 nM
same,GI50,[5],1580 nM
C#Cc1cc(C#Cc2ccc3ncn(-c4ccnc(N)n4)c3c2)ncn1,IC50,[1],50.1 µM
C=Cc1cc(C#Cc2ccc3ncn(-c4ccnc(N)n4)c3c2)ccn1,IC50,[1],20 µM
C#Cc1ccc2ncn(-c3ccnc(N)n3)c2c1,IC50,[1],0.251 µM
CC(=O)NCCCCc1ccc2ncn(-c3ccnc(N)n3)c2c1,IC50,[1],398 µM
